Measured values: paper PMC11581222, “Inhibition of CCl4-induced liver inflammation and fibrosis by a NEU3 inhibitor” (PLOS ONE, 2024)
Like-named read-outs stand apart in the source and are kept apart here.

Experiments:
CYP2C8 = CYP2C8 (Homo sapiens, UniProt P10632); test: Eurofins CYP450 inhibition, dibenzyl fluorescein substrate; format: in vitro ADME; details: recombinant CYP2C8, probe dibenzyl fluorescein, 10 μM 2AP
CYP2D6 = CYP2D6 (Homo sapiens, UniProt P10635); test: Eurofins CYP450 inhibition, 3-Cyano-7-ethoxycoumarin substrate; format: in vitro ADME; details: recombinant CYP2D6, probe 3-cyano-7-ethoxycoumarin, 10 μM 2AP
CYP1A2 = CYP1A2 (Homo sapiens, UniProt P05177); test: as above; format: in vitro ADME; details: recombinant CYP1A2, probe 3-cyano-7-ethoxycoumarin, 10 μM 2AP
Experimental: CYP450 enzymes and a panel of receptors were assessed for inhibition by 10 μM 2AP using HitProfilingScreen + CYP450 LeadHunter Panel at Eurofins (Eurofins Panlabs Discovery Services, New Taipei City, Taiwan). Briefly, human recombinant CYP450 enzymes were preincubated at 37°C for 15 minutes with 10 μM 2AP. Enzyme activity was assessed by cleavage of the CYP450 fluorogenic substrates dibenzyl fluorescein (aromatase / CYP19A1, CYP2C8), 3-Cyano-7-ethoxycoumarin (CYP1A2, CYP2B6, CYP2C19, CYP2C9, and CYP2D6), or 7-Benzyloxy-4-(trifluoromethyl)-coumarin (CYP3A4), as described previously. Inhibition of receptor binding was assessed using a panel of receptors expressed on cell lines or using tissue extracts and preincubated at 25°C for 30–120 minutes with 10 μM 2AP. Cells or tissue extracts were then incubated with radiolabeled specific ligands a described (https://www.eurofinsdiscovery.com/catalog/hitprofilingscreen-cyp450-leadhunter-panel-tw/PP115) and inhibition of binding was reported (S2 Table).

[1] = test system: bleomycin-induced pulmonary fibrosis; details: injections; male mice; cited from earlier work
[2] = test system: CCl4-induced liver inflammation and fibrosis; details: for body weight, CCl4-induced weight loss: 1 mg/kg 2AP i.p. daily from day 21
human recombinant NEU3 = test system: human recombinant NEU3; parameters: method as in PMID 33144389; details: human recombinant NEU3; pH 6.9; read-out: IC50, inhibition of release of active TGF-β1 from human latent TGF-β1; cited from earlier work
Imidazoline I2, Central = test: Eurofins radioligand receptor binding inhibition; details: 10 μM 2AP
Adenosine A2A = Adenosine A2A (Homo sapiens, UniProt P29274); test: Eurofins radioligand receptor binding inhibition; details: 10 μM 2AP
Adrenergic β2 = Adrenergic β2 (Homo sapiens, UniProt P07550); test: Eurofins radioligand receptor binding inhibition; parameters: dose or concentration left out as unconfirmed
[3] = CCl4+2AP vs CCl4, male and female mice
[4] = treatments vs control (oil) mice

Adenosine A2A, sequence (P29274 whole entry): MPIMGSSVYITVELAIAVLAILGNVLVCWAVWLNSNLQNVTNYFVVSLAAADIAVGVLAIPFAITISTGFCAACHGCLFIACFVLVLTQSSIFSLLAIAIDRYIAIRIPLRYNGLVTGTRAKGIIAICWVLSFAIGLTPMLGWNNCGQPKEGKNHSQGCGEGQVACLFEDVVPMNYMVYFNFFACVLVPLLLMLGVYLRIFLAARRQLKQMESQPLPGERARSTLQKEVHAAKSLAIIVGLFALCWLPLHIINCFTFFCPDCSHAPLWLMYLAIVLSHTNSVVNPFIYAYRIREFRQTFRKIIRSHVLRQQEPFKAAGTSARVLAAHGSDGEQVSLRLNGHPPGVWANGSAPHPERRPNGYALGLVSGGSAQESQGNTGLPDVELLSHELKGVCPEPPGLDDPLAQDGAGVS
CYP2C8, sequence (P10632 whole entry): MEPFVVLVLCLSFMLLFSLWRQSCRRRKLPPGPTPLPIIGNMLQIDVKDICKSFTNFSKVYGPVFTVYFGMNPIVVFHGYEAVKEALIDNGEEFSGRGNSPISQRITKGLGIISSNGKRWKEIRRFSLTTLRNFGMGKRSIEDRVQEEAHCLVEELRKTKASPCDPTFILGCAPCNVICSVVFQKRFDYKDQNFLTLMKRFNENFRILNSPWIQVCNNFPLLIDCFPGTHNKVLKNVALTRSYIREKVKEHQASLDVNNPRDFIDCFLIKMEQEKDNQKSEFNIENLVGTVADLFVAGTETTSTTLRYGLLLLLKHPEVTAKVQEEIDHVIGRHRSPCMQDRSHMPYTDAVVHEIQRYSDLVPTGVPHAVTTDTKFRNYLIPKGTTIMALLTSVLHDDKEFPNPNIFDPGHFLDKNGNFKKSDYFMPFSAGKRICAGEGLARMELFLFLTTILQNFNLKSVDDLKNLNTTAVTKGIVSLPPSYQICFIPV
Adrenergic β2, sequence (P07550 whole entry): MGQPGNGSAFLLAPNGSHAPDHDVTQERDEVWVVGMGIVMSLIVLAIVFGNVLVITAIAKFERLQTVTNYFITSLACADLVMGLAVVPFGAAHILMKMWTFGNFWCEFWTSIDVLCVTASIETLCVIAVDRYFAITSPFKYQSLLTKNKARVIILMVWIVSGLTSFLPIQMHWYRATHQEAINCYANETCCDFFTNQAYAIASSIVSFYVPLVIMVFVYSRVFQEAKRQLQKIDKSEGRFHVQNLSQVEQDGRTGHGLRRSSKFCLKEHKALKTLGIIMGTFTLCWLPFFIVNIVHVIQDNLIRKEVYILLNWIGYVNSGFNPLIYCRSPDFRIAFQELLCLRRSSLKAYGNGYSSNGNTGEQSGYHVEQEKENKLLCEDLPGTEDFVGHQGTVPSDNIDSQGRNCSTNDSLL
CYP1A2, sequence (P05177 whole entry): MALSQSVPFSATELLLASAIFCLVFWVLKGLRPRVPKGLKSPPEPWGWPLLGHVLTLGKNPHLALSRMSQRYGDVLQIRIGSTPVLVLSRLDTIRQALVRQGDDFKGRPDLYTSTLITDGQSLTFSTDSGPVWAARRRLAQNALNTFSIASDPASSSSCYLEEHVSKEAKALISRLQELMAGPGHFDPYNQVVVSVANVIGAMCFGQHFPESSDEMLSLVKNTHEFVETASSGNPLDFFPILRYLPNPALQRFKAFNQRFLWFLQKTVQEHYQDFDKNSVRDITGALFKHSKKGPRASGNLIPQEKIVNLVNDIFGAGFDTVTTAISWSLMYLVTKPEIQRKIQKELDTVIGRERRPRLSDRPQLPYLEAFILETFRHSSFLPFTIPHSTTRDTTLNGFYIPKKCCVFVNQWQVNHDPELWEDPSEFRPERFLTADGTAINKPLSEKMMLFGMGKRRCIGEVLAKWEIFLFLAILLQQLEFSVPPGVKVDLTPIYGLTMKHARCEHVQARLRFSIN
CYP2D6, sequence (P10635 whole entry): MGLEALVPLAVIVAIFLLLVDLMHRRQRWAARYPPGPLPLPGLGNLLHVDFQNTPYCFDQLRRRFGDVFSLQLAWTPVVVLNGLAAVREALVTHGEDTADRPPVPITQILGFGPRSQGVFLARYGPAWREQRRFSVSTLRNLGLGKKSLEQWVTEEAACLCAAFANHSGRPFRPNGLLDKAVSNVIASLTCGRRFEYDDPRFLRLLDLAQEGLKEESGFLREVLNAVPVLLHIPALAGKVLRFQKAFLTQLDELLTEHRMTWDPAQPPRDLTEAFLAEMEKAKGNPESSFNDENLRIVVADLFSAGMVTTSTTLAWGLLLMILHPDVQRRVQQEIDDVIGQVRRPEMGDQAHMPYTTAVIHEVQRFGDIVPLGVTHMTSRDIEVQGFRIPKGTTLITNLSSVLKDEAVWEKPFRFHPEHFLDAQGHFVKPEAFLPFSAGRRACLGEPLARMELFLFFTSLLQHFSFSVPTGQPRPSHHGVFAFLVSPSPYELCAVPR

## CC(=O)c1ccccn1 [2AP, 2-acetyl pyridine]
CYP2C8
  inhibition at 10 µM: 0%
CYP2D6
  inhibition at 10 µM: 2%
CYP1A2
  inhibition at 10 µM: 3%
[1]
  pulmonary fibrosis: attenuate bleomycin-induced pulmonary fibrosis
[2]; 1 mg/kg 2AP i.p. daily, days 21-42
  toxic effects of daily injections: did not appear to have any obvious toxic effects
[2]; CCl4+2AP vs CCl4, female mice
  body weight, CCl4-induced weight loss: response of female mice to 2AP treatment
  number of S100A8/MRP8 positive cells (neutrophils) in liver: reduction in the number of S100A8/MRP8 positive cells
[2]; CCl4+2AP vs CCl4, male and female combined, days 39 and 40
  body weight, CCl4-induced weight loss: less weight loss
[2]; CCl4+2AP vs CCl4, male mice
  body weight, CCl4-induced weight loss: not apparent in male mice
  liver hydroxyproline levels: reduced hydroxyproline levels
[2]; [3]
  liver NEU3 staining: attenuated the CCl4-induced NEU3 staining
  liver desialylation, PNA lectin staining: reduced PNA staining
  liver fibrosis, picrosirius red staining: decreased picrosirius red staining
  liver inflammation, vessels with accumulation of immune cells (H&E): attenuated the CCl4 induced inflammation
  number of Mac2 positive cells around liver vessels: decreased the number of Mac2 positive cells in the vessel areas
  number of Mac2 positive cells in liver: decreased the number of Mac2 positive cells
  steatosis, oil red O staining of liver: no significant differences in oil red O staining
[2]; mouse, in vivo
  kidney, spleen, heart, or brown fat weights at day 42: no significant effect
  liver NEU3 staining: no significant differences in NEU3 staining
  liver desialylation, PNA lectin staining: did not significantly change PNA staining
  liver hydroxyproline levels: no significant differences in hydroxyproline levels
  liver weight at day 42: higher liver weights
  lung weight at day 42: increased lung weights
  number of Mac2 positive cells around liver vessels: no significant differences in the number of Mac2 positive cells in vessel areas
  number of Mac2 positive cells in liver: no significant differences in the number of Mac2 positive cells
  number of S100A8 positive cells in liver: no significant differences in the number of S100A8 positive cells
  overt effects on mice (body weight over 42 days): no overt effects on the mice
  steatosis, oil red O staining of liver: no significant change in the oil red O staining
  white fat weight at day 42: reduced white fat
[2]; [4]
  number of CD3 T cells in liver: no significant treatment-induced difference
  number of CLEC4F positive Kupffer cells in liver: no significant treatment-induced difference
[2]; treatments vs control mice
  number of Mac2 positive cells in parenchymal areas of the liver: no significant treatment-induced difference
Human recombinant NEU3
  IC50: 40 ± 6 nM
Imidazoline I2, Central
  % Inhibition: 3%
Adenosine A2A
  inhibition at 10 µM: 0%
Adrenergic β2
  inhibition: 5%
